SMILES strings stand for the structures.

Assay [1] deals with T1, recombinant F508del V470 CFTR in Fischer rat thyroid (FRT) cells (Homo sapiens, UniProt P13569, DEL508-508).
T1 construct: expressed in transfected cells
The experiment in a line: FRT ion flux assay of F508del CFTR potentiation. It is filed as cell-based. The note with it: FRT cells expressing F508del V470 CFTR, forskolin 20 uM, 27° C. pre-incubation. The essentials: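 Potentiation read as YFP quench ~21 s after iodide buffer addition, as second/initial fluorescence ratio normalised between DMSO (0%) and reference potentiator (100%).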

Assay [2] deals with T2, CFTR in F508del/F508del primary CF hBE cells (Homo sapiens, UniProt P13569, DEL508-508).
T2 construct: Primary cystic fibrosis human bronchial epithelial (CF hBE) cells were expanded and cultured; endogenous in cells; host or cells: primary CF human bronchial epithelial cells, genotype F508del/F508del
T2 sequence (P13569 with tags, fused parts or gaps DEL508-508): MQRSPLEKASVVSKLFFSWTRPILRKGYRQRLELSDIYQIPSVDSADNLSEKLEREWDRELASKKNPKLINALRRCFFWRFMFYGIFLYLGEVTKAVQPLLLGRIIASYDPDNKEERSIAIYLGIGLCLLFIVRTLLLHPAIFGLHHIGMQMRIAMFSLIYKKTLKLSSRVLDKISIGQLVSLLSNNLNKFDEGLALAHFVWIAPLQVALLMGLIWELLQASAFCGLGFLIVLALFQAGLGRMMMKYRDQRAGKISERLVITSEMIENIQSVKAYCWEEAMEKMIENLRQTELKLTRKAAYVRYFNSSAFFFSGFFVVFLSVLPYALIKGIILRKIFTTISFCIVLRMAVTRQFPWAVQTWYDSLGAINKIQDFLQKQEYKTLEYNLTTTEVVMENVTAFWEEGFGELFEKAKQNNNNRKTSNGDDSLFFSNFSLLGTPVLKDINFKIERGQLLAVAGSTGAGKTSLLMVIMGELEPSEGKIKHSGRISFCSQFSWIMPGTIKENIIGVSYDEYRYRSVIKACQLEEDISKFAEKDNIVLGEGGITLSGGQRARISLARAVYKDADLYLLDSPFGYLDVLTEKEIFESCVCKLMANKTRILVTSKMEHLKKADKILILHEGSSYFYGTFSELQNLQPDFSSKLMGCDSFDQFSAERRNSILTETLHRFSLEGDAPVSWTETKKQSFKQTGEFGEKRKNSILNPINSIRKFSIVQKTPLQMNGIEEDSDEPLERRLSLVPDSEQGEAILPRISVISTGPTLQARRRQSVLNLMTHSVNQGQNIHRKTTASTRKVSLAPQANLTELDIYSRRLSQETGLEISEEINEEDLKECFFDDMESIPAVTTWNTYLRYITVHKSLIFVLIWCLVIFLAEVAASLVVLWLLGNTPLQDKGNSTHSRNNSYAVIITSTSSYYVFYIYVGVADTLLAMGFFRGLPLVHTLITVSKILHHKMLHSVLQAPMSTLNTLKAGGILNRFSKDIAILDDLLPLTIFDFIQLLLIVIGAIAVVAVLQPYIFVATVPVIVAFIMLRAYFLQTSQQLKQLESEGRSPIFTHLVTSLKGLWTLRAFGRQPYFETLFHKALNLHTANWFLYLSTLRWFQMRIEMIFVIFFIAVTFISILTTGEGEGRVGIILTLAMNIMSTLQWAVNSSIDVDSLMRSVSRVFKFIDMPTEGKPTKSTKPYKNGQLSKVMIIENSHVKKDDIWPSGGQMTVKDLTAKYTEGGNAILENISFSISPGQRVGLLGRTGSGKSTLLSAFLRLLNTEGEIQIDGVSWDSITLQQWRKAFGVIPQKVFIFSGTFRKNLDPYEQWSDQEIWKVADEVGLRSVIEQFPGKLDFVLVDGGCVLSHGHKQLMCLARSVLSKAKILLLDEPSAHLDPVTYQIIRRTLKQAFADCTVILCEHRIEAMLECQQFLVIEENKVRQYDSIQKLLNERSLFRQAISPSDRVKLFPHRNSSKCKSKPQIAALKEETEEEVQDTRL
In words: Ussing chamber electrophysiology assay of CFTR potentiation in F508del/F508del CF bronchial epithelial cells (27° C.). The class given is cell-based. The essentials: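 Short-circuit current was recorded under zero-voltage clamp across primary CF bronchial epithelia cultured >30 days at air/liquid interface, bathed apically and basolaterally in HEPES-buffered saline. Sequential additions: amiloride (30 uM), forskolin (10 uM), compound at 4 increasing levels, CFTRinh-172 (20 uM). Responses normalised between DMSO (0%) and maximal positive-control potentiator (100%).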

T1 sequence (P13569 with tags, fused parts or gaps DEL508-508): as above

`CC(c1cn(-c2ccccc2F)nn1)n1cc(-c2ccc(Cl)cc2)c2c(N)ncnc21` (single isomer, unassigned) [Example 112]: the EC50 is 68.6 nM in assay [1] and 17.5 nM in assay [2].

For `COc1ccc(-c2c(C)n(Cc3cn(-c4ccc(F)cc4F)nn3)c3ncnc(N)c23)cn1` [Example 278, 7-{[1-(2,4-Difluorophenyl)-1H-1,2,3-triazol-4-yl]methyl}-5-(6-methoxypyridin-3-yl)-6-methyl-7H-pyrrolo[2,3-d]pyrimidin-4-amine], the results for the EC50 in assay [1] and in assay [2] were 219 nM and 152 nM, respectively.

For `CCC(c1cn(-c2cc(F)ccc2F)nn1)n1cc(-c2cc(F)cnc2OC)c2c(N)ncnc21` (single isomer, unassigned; enantiomer 1) [Example 171, 7-{1-[1-(2,5-Difluorophenyl)-1H-1,2,3-triazol-4-yl]propyl}-5-(5-fluoro-2-methoxypyridin-3-yl)-7H-pyrrolo[2,3-d]pyrimidin-4-amine, enantiomer 1], the EC50 in assay [1] stood at 11.7 nM; in assay [2], 3.87 nM.

With `COc1ncncc1-c1cn(Cc2cn(-c3ccccc3F)nn2)c2ncnc(N)c12` [Example 200, 7-{[1-(2-Fluorophenyl)-1H-1,2,3-triazol-4-yl]methyl}-5-(4-methoxypyrimidin-5-yl)-7H-pyrrolo[2,3-d]pyrimidin-4-amine], the EC50 is 100 nM in assay [1] and 478 nM in assay [2].

Consider `Nc1ncnc2c1c(-c1ccc3c(c1)CCO3)cn2Cc1cn(-c2ccccc2F)nn1` [Example 74, 5-(2,3-Dihydro-1-benzofuran-5-yl)-7-{[1-(2-fluorophenyl)-1H-1,2,3-triazol-4-yl]methyl}-7H-pyrrolo[2,3-d]pyrimidin-4-amine], for which the half-maximal effective concentration (EC50) in assay [1] worked out at 328 nM; in assay [2], 59 nM.

For the compound `CCC(c1cn(-c2ccc(F)c(F)c2)nn1)n1cc(-c2cnc(OC)c(F)c2)c2c(N)ncnc21` (single isomer, unassigned; enantiomer 2) [Example 158, 7-{1-[1-(3,4-Difluorophenyl)-1H-1,2,3-triazol-4-yl]propyl}-5-(5-fluoro-6-methoxypyridin-3-yl)-7H-pyrrolo[2,3-d]pyrimidin-4-amine, enantiomer 2], the concentration for a half-maximal effect (EC50) was 112 nM in assay [1] and 19.5 nM in assay [2].

`COc1cc(C#N)ccc1-c1cn(Cc2cn(-c3ccccc3F)nn2)c2ncnc(N)c12` [Example 79, 4-(4-Amino-7-{[1-(2-fluorophenyl)-1H-1,2,3-triazol-4-yl]methyl}-7H-pyrrolo[2,3-d]pyrimidin-5-yl)-3-methoxybenzonitrile]: the figures for the concentration giving a half-maximal response (EC50) in assay [1] and in assay [2] were 75.2 nM and 150 nM, respectively.

For `Nc1ncnc2c1c(-c1cccnc1OC(F)F)cn2Cc1cn(-c2ccccc2F)nn1` [Example 196, 5-[2-(Difluoromethoxy)pyridin-3-yl]-7-{[1-(2-fluorophenyl)-1H-1,2,3-triazol-4-yl]methyl}-7H-pyrrolo[2,3-d]pyrimidin-4-amine], the EC50 was 15.6 nM in assay [1] and 49 nM in assay [2].

For `CCC(c1cn(-c2ccc(F)cc2F)nn1)n1cc(-c2cnc(C(F)F)nc2)c2c(N)ncnc21` (single isomer, unassigned; enantiomer 1) [Example 167, 5-[2-(Difluoromethyl)pyrimidin-5-yl]-7-{1-[1-(2,4-difluorophenyl)-1H-1,2,3-triazol-4-yl]propyl}-7H-pyrrolo[2,3-d]pyrimidin-4-amine, enantiomer 1], the results for the EC50 in assay [1] and in assay [2] were 25 nM and 50.5 nM, respectively.

In the case of `CCC(c1cn(-c2ccccc2F)nn1)n1cc(-c2ccc(OC(F)F)nc2)c2c(N)ncnc21` (single isomer, unassigned; enantiomer 1) [Example 141, (−) 5-[6-(Difluoromethoxy)pyridin-3-yl]-7-{1-[1-(2-fluorophenyl)-1H-1,2,3-triazol-4-yl]propyl}-7H-pyrrolo[2,3-d]pyrimidin-4-amine, enantiomer 1], the EC50 in assay [1] is 277 nM; in assay [2], 133 nM.

With `CC(c1cn(-c2ccccc2F)nn1)n1cc(-c2cc[nH]n2)c2c(N)ncnc21` (single isomer, unassigned; enantiomer 1) [Example 121, 7-{1-[1-(2-Fluorophenyl)-1H-1,2,3-triazol-4-yl]ethyl}-5-(1H-pyrazol-3-yl)-7H-pyrrolo[2,3-d]pyrimidin-4-amine, enantiomer 1], the EC50 in assay [1] is 30 nM; in assay [2], 89.2 nM.

Turning to `CCC(c1cn(-c2ccccc2F)nn1)n1cc(-c2ccc(OC(F)F)nc2)c2c(N)ncnc21` (single isomer, unassigned; enantiomer 2) [Example 142, (+) 5-[6-(Difluoromethoxy)pyridin-3-yl]-7-{1-[1-(2-fluorophenyl)-1H-1,2,3-triazol-4-yl]propyl}-7H-pyrrolo[2,3-d]pyrimidin-4-amine, enantiomer 2], the EC50 in assay [1] came to 5.02 nM; in assay [2], 4.58 nM.

Consider `CC(c1cn(-c2ccccc2F)nn1)n1cc(-c2ccc(C#N)c(F)c2)c2c(N)ncnc21` (stereo not drawn) [Example 239, 4-(4-Amino-7-{1-[1-(2-fluorophenyl)-1H-1,2,3-triazol-4-yl)ethyl]-7H-pyrrolo[2,3-d]pyrimidin-5-yl}-2-fluorobenzonitrile], for which the concentration giving a half-maximal response (EC50) in assay [1] turned out to be 94.4 nM; in assay [2] it was 83 nM.

Turning to `CCC(c1cn(-c2ccccc2F)nn1)n1cc(C2CC2)c2c(N)ncnc21` (single isomer, unassigned; enantiomer 1) [Example 173, (−) 5-Cyclopropyl-7-{1-[1-(2-fluorophenyl)-1H-1,2,3-triazol-4-yl]propyl}-7H-pyrrolo[2,3-d]pyrimidin-4-amine, enantiomer 1], the values for the EC50 in assay [1] and in assay [2] were 29.3 nM and 26.7 nM, respectively.

As to `CCC(c1cn(-c2cc(C(F)(F)F)ccn2)nn1)n1cc(-c2cncnc2OC)c2c(N)ncnc21` (stereo not drawn) [Example 242, 5-(4-Methoxypyrimidin-5-yl)-7-(1-{1-[4-(trifluoromethyl)pyridin-2-yl]-1H-1,2,3-triazol-4-yl]propyl}-7H-pyrrolo[2,3-d]pyrimidin-4-amine], the half-maximal effective concentration (EC50) in assay [1] is 378 nM; in assay [2], 205 nM.

Take `Cc1c(-c2ccc(Cl)cc2)c2c(N)ncnc2n1C(C)c1cn(-c2ccccc2F)nn1` (stereo not drawn) [Example 257, 5-(4-Chlorophenyl)-7-{1-[1-(2-fluorophenyl)-1H-1,2,3-triazol-4-yl]ethyl}-6-methyl-7H-pyrrolo[2,3-d]pyrimidin-4-amine]: the concentration giving a half-maximal response (EC50) in assay [1] worked out at 289 nM; in assay [2] it was 38.3 nM.

With `CC(c1cn(-c2ccccc2F)nn1)n1cc(-c2cccc(C(F)(F)F)c2)c2c(N)ncnc21` (stereo not drawn) [Example 97, 7-{1-[1-(2-Fluorophenyl)-1H-1,2,3-triazol-4-yl]ethyl}-5-[3-(trifluoromethyl)phenyl]-7H-pyrrolo[2,3-d]pyrimidin-4-amine], the EC50 in assay [1] is 231 nM; in assay [2] it was 164 nM.

Take `CC(c1cnn(-c2ccccc2F)c1)n1c(C#N)c(-c2cnc(C(F)F)nc2)c2c(N)ncnc21` (single isomer, unassigned) [Example 2, 4-Amino-5-[2-(difluoromethyl)pyrimidin-5-yl]-7-{1-[1-(2-fluorophenyl)-1H-pyrazol-4-yl]ethyl}-7H-pyrrolo[2,3-d]pyrimidine-6-carbonitrile]: the EC50 amounted to 7.51 nM in assay [1] and 8.77 nM in assay [2].

With `CC(c1cn(-c2ccccc2F)nn1)n1cc(-c2ccc(C#N)c(F)c2)c2c(N)ncnc21` (single isomer, unassigned; enantiomer 1) [Example 115, 4-(4-Amino-7-{1-[1-(2-fluorophenyl)-1H-1,2,3-triazol-4-yl]ethyl}-7H-pyrrolo[2,3-d]pyrimidin-5-yl)-2-fluorobenzonitrile, enantiomer 1], the concentration for a half-maximal effect (EC50) in assay [1] stood at 566 nM; in assay [2], 614 nM.

With `CC(c1cc(-c2ccccc2F)no1)n1cc(-c2ccc(Cl)cc2)c2c(N)ncnc21` (stereo not drawn) [Example 258, 5-(4-Chlorophenyl)-7-{1-[3-(2-fluorophenyl)-1,2-oxazol-5-yl]ethyl}-7H-pyrrolo[2,3-d]pyrimidin-4-amine], the EC50 in assay [1] was 343 nM; in assay [2] it was 147 nM.

In the case of `COc1ncccc1-c1cn(Cc2cnn(-c3ccc(C(F)F)cc3)c2)c2ncnc(N)c12` [Example 270, 7-({1-[4-(Difluoromethyl)phenyl]-1H-pyrazol-4-yl}methyl)-5-(2-methoxypyridin-3-yl)-7H-pyrrolo[2,3-d]pyrimidin-4-amine], the EC50 was 451 nM in assay [1] and 47.7 nM in assay [2].

For `CC(c1cn(-c2ccccc2F)nn1)n1cc(C2CC2)c2c(N)ncnc21` (single isomer, unassigned) [Example 108, 5-Cyclopropyl-7-{1-[1-(2-fluorophenyl)-1H-1,2,3-triazol-4-yl]ethyl}-7H-pyrrolo[2,3-d]pyrimidin-4-amine], the results for the EC50 in assay [1] and in assay [2] were 1200 nM and 706 nM, respectively.

With `Cc1nc(N)c2c(-c3ccc(Cl)cc3)cn(C(C)c3cn(-c4ccccc4F)nn3)c2n1` (stereo not drawn) [Example 209, 5-(4-Chlorophenyl)-7-{1-[1-(2-fluorophenyl)-1H-1,2,3-triazol-4-yl]ethyl}-2-methyl-7H-pyrrolo[2,3-d]pyrimidin-4-amine], the concentration giving a half-maximal response (EC50) in assay [1] was determined as 343 nM; in assay [2], 295 nM.

On to `Nc1ncnc2c1c(-c1ccc(Cl)cc1)cn2Cc1cnc(-c2ccccc2)[nH]1` [Example 264, 5-(4-Chlorophenyl)-7-[(2-phenyl-1H-imidazol-5-yl)methyl]-7H-pyrrolo[2,3-d]pyrimidin-4-amine], for which the concentration for a half-maximal effect (EC50) in assay [1] was 176 nM; in assay [2] it was 35.4 nM.

Values taken from patent publication US12612409B2, “Pyrrolopyrimidines as CFTR potentiators” (Cystic Fibrosis Foundation, priority 2016, dated 2026).
